These results are taken from publication PMC7780120, “Modulators of histone demethylase JMJD1C selectively target leukemic stem cells” (FEBS Open Bio, 2020).

This test addresses T1, JMJD1C (partial, 2274-2498aa) (Homo sapiens, UniProt Q15652).
T1 construct: immobilised on CM7 chip
T1 sequence (Q15652 2274-2498): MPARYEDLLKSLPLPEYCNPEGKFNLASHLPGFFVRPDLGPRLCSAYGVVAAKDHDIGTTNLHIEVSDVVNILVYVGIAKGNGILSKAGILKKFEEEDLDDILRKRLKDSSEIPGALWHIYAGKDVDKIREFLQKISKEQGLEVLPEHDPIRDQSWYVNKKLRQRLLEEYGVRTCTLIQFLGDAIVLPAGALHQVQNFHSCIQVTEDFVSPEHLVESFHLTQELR
Put plainly: SPR, immobilised protein, […] Langmuir fit. The test is classed as binding. Background: In SPR one partner is held on a chip, and binding of the other changes the refractive index at the surface.

With `CN1CC(=O)N2[C@H](c3ccc4c(c3)OCO4)c3[nH]c4ccccc4c3C[C@@H]2C1=O` [tadalafil], binding was characterised by a dissociation constant (Kd) of 256 µM.

Broadly, the Kd is the free concentration of one partner at which half of the binding sites on the other are occupied at equilibrium, for simple one-to-one binding. A lower Kd goes with higher affinity.
